{"source": "patent US4551445A", "about": "“Derivatives of arginine vasopressin antagonists” (The Medical College of Ohio, priority 1983, dated 1985)", "note": "Starred links: 1 amine or outer side, 2 acyl side, 3 side chain; linkers in the order of their positions; H or OH if unused. Positions of bridges follow the written chain, without caps; N, C: chain ends. Non-standard residues stand in square brackets, D forms with d. Residues, ends and D or L forms follow the SMILES beside them. X1 = O=C(CC1(S[*:2])CCCCC1)[*:1]; Cha = N[C@@H](CC1CCCCC1)C(=O)O; Nle = CCCC[C@H](N)C(=O)O; Orn = NCCC[C@H](N)C(=O)O; Nva = CCC[C@H](N)C(=O)O; Abu = CC[C@H](N)C(=O)O", "data": [{"tested_on": "antidiuretic response to arginine vasopressin (ADH)", "assay": "Anti-antidiuretic: antagonism of the antidiuretic response to subsequent injections of vasopressin", "type": "in vivo, rats", "conditions": "Table 1; estimated in vivo pA2, volume of distribution 67 ml/kg", "method": "(§1) Activity as antidiuretic agonists was determined by intravenous injection of the compounds being evaluated in ethanol-anesthesized water-loaded rats in accordance with Sawyer, Endocrinology, vol. 63 (1958) at 694. Antagonism of the response to subsequent injections of vasopressin was tested as described by Sawyer et al., Science, vol. 212 (1981) at 49.\n(§2) Antagonistic potencies were determined and expressed as \"effective doses\" and pA2 values. The \"effective dose\" is defined as the dose (in nanomoles per kilogram) that reduces the response seen from 2x units of agonist injected 20 min after the dose of antagonist to the response with 1x units of agonist. Estimated in vivo \"pA2 \" values represent the negative logarithms of the effective doses, divided by the estimated volume of distribution (67 ml/kg).", "values": [{"smiles": "CC(C)[C@@H]1NC(=O)[C@H](Cc2ccccc2)NC(=O)[C@@H](Cc2ccc(O)cc2)NC(=O)CC2(CCCCC2)SSC[C@@H](C(=O)N2CCC[C@H]2C(=O)N[C@@H](CCCNC(=N)N)C(=O)NCC(N)=O)NC(=O)[C@H](CC(N)=O)NC1=O", "note": "[d(CH2)5 --D-TyrVAVP, [1-(β-mercapto-β,β-cyclopentamethylenepropionic acid), 2-D-tyrosine, 4-valine]-arginine vasopressin] ([dY]FVNCPRG-NH2; linker N-5 via X1)", "Anti-Antidiuretic pA2": "7.51 ± 0.08"}]}, {"tested_on": "antidiuretic response to arginine vasopressin (ADH)", "assay": "Anti-antidiuretic: antagonism of the antidiuretic response to subsequent injections of vasopressin", "type": "in vivo, rats", "conditions": "Table 2; estimated in vivo pA2, volume of distribution 67 ml/kg", "method": "as §1, §2", "values": [{"smiles": "CC[C@@H](C)[C@H]1NC(=O)CC2(CCCCC2)SSC[C@@H](C(=O)N2CCC[C@H]2C(=O)N[C@@H](CCCNC(=N)N)C(=O)NCC(N)=O)NC(=O)[C@H](CC(N)=O)NC(=O)[C@H](CCC(N)=O)NC(=O)[C@H](Cc2ccccc2)NC1=O", "note": "[d(CH2)5 D-Ile^2 AVP, [1-(β-mercapto-β,β-cyclopentamethylenepropionic acid), 2-D-isoleucine]-arginine vasopressin] ([dI]FQNCPRG-NH2; linker N-5 via X1)", "Anti-Antidiuretic pA2": 6.96}, {"smiles": "CC[C@@H]1NC(=O)[C@H](Cc2ccccc2)NC(=O)[C@@H]([C@H](C)CC)NC(=O)CC2(CCCCC2)SSC[C@@H](C(=O)N2CCC[C@H]2C(=O)N[C@@H](CCCNC(=N)N)C(=O)NCC(N)=O)NC(=O)[C@H](CC(N)=O)NC1=O", "note": "[d(CH2)5 D-Ile^2 Abu^4 AVP, [1-(β-mercapto-β,β-cyclopentamethylenepropionic acid), 2-D-isoleucine, 4-α-aminobutyric acid]-arginine vasopressin] ([dI]F[Abu]NCPRG-NH2; linker N-5 via X1)", "Anti-Antidiuretic pA2": 8.22}, {"smiles": "CC[C@@H](C)[C@H]1NC(=O)CC2(CCCCC2)SSC[C@@H](C(=O)N2CCC[C@H]2C(=O)N[C@@H](CCCNC(=N)N)C(=O)NCC(N)=O)NC(=O)[C@H](CC(N)=O)NC(=O)[C@H](C)NC(=O)[C@H](Cc2ccccc2)NC1=O", "note": "[d(CH2)5 D-Ile^2 Ala^4 AVP, [1-(β-mercapto-β,β-cyclopentamethylenepropionic acid), 2-D-isoleucine, 4-alanine]-arginine vasopressin] ([dI]FANCPRG-NH2; linker N-5 via X1)", "Anti-Antidiuretic pA2": 7.76}, {"smiles": "CC[C@@H](C)[C@H]1NC(=O)CC2(CCCCC2)SSC[C@@H](C(=O)N2CCC[C@H]2C(=O)N[C@@H](CCCNC(=N)N)C(=O)NCC(N)=O)NC(=O)[C@H](CC(N)=O)NC(=O)[C@H]([C@@H](C)CC)NC(=O)[C@H](Cc2ccccc2)NC1=O", "note": "[d(CH2)5 D-Ile^2 Ile^4 AVP, [1-(β-mercapto-β,β-cyclopentamethylenepropionic acid), 2-D-isoleucine, 4-isoleucine]-arginine vasopressin] ([dI]FINCPRG-NH2; linker N-5 via X1)", "Anti-Antidiuretic pA2": 8.04}, {"smiles": "CC[C@@H](C)[C@H]1NC(=O)CC2(CCCCC2)SSC[C@@H](C(=O)N2CCC[C@H]2C(=O)N[C@@H](CCCNC(=N)N)C(=O)NCC(N)=O)NC(=O)[C@H](CC(N)=O)NC(=O)[C@H](CC(C)C)NC(=O)[C@H](Cc2ccccc2)NC1=O", "note": "[d(CH2)5 D-Ile^2 Leu^4 AVP, [1-(β-mercapto-β,β-cyclopentamethylenepropionic acid), 2-D-isoleucine, 4-leucine]-arginine vasopressin] ([dI]FLNCPRG-NH2; linker N-5 via X1)", "Anti-Antidiuretic pA2": 6.80}, {"smiles": "CC[C@@H](C)[C@H]1NC(=O)CC2(CCCCC2)SSC[C@@H](C(=O)N2CCC[C@H]2C(=O)N[C@@H](CCCNC(=N)N)C(=O)NCC(N)=O)NC(=O)[C@H](CC(N)=O)NC(=O)[C@H]([C@@H](C)O)NC(=O)[C@H](Cc2ccccc2)NC1=O", "note": "[d(CH2)5 D-Ile^2 Thr^4 AVP, [1-(β-mercapto-β,β-cyclopentamethylenepropionic acid), 2-D-isoleucine, 4-threonine]-arginine vasopressin] ([dI]FTNCPRG-NH2; linker N-5 via X1)", "Anti-Antidiuretic pA2": 7.91}, {"smiles": "CC[C@@H](C)[C@H]1NC(=O)CC2(CCCCC2)SSC[C@@H](C(=O)N2CCC[C@H]2C(=O)N[C@@H](CCCNC(=N)N)C(=O)NCC(N)=O)NC(=O)[C@H](CC(N)=O)NC(=O)[C@H](C(C)C)NC(=O)[C@H](Cc2ccccc2)NC1=O", "note": "[d(CH2)5 D-Ile^2 VAVP, [1-(β-mercapto-β,β-cyclopentamethylenepropionic acid), 2-D-isoleucine, 4-valine]-arginine vasopressin] ([dI]FVNCPRG-NH2; linker N-5 via X1)", "Anti-Antidiuretic pA2": 7.98}, {"smiles": "CC[C@@H](C)[C@H]1NC(=O)CC2(CCCCC2)SSC[C@@H](C(=O)N2CCC[C@H]2C(=O)N[C@@H](CCCN)C(=O)NCC(N)=O)NC(=O)[C@H](CC(N)=O)NC(=O)[C@H](C(C)C)NC(=O)[C@H](Cc2ccccc2)NC1=O", "note": "[d(CH2)5 D-Ile^2 Val^4 Orn^8 VP] ([dI]FVNCP[Orn]G-NH2; linker N-5 via X1)", "Anti-Antidiuretic pA2": 7.66}, {"smiles": "N=C(N)NCCC[C@H](NC(=O)[C@@H]1CCCN1C(=O)[C@@H]1CSSC2(CCCCC2)CC(=O)N[C@H](Cc2ccccc2)C(=O)N[C@@H](Cc2ccccc2)C(=O)N[C@@H](CCC(N)=O)C(=O)N[C@@H](CC(N)=O)C(=O)N1)C(=O)NCC(N)=O", "note": "[d(CH2)5 D-Phe^2 AVP, [1-(β-mercapto-β,β-cyclopentamethylenepropionic acid), 2-D-phenylalanine]-arginine vasopressin] ([dF]FQNCPRG-NH2; linker N-5 via X1)", "Anti-Antidiuretic pA2": 7.21}, {"smiles": "C[C@@H]1NC(=O)[C@H](Cc2ccccc2)NC(=O)[C@@H](Cc2ccccc2)NC(=O)CC2(CCCCC2)SSC[C@@H](C(=O)N2CCC[C@H]2C(=O)N[C@@H](CCCNC(=N)N)C(=O)NCC(N)=O)NC(=O)[C@H](CC(N)=O)NC1=O", "note": "[d(CH2)5 D-Phe^2 Ala^4 AVP, [1-(β-mercapto-β,β-cyclopentamethylenepropionic acid), 2-D-phenylalanine, 4-alanine]-arginine vasopressin] ([dF]FANCPRG-NH2; linker N-5 via X1)", "Anti-Antidiuretic pA2": 7.52}, {"smiles": "N=C(N)NCCC[C@H](NC(=O)[C@@H]1CCCN1C(=O)[C@@H]1CSSC2(CCCCC2)CC(=O)N[C@H](Cc2ccccc2)C(=O)N[C@@H](Cc2ccccc2)C(=O)N[C@@H](CC2CCCCC2)C(=O)N[C@@H](CC(N)=O)C(=O)N1)C(=O)NCC(N)=O", "note": "[d(CH2)5 D-Phe^2 Cha^4 AVP, [1-(β-mercapto-β,β-cyclopentamethylenepropionic acid), 2-D-phenylalanine, 4-cyclohexylalanine]-arginine vasopressin] ([dF]F[Cha]NCPRG-NH2; linker N-5 via X1)", "Anti-Antidiuretic pA2": 7.19}, {"smiles": "N=C(N)NCCC[C@H](NC(=O)[C@@H]1CCCN1C(=O)[C@@H]1CSSC2(CCCCC2)CC(=O)N[C@H](Cc2ccccc2)C(=O)N[C@@H](Cc2ccccc2)C(=O)NCC(=O)N[C@@H](CC(N)=O)C(=O)N1)C(=O)NCC(N)=O", "note": "[d(CH2)5 D-Phe^2 Gly^4 AVP, [1-(β-mercapto-β,β-cyclopentamethylenepropionic acid), 2-D-phenylalanine, 4-glycine]-arginine vasopressin] ([dF]FGNCPRG-NH2; linker N-5 via X1)", "Anti-Antidiuretic pA2": 5.85}, {"smiles": "CC[C@H](C)[C@@H]1NC(=O)[C@H](Cc2ccccc2)NC(=O)[C@@H](Cc2ccccc2)NC(=O)CC2(CCCCC2)SSC[C@@H](C(=O)N2CCC[C@H]2C(=O)N[C@@H](CCCNC(=N)N)C(=O)NCC(N)=O)NC(=O)[C@H](CC(N)=O)NC1=O", "note": "[d(CH2)5 D-Phe^2 Ile^4 AVP, [1-(β-mercapto-β,β-cyclopentamethylenepropionic acid), 2-D-phenylalanine, 4-isoleucine]-arginine vasopressin] ([dF]FINCPRG-NH2; linker N-5 via X1)", "Anti-Antidiuretic pA2": 8.24}, {"smiles": "CC(C)C[C@@H]1NC(=O)[C@H](Cc2ccccc2)NC(=O)[C@@H](Cc2ccccc2)NC(=O)CC2(CCCCC2)SSC[C@@H](C(=O)N2CCC[C@H]2C(=O)N[C@@H](CCCNC(=N)N)C(=O)NCC(N)=O)NC(=O)[C@H](CC(N)=O)NC1=O", "note": "[d(CH2)5 D-Phe^2 Leu^4 AVP, [1-(β-mercapto-β,β-cyclopentamethylenepropionic acid), 2-D-phenylalanine, 4-leucine]-arginine vasopressin] ([dF]FLNCPRG-NH2; linker N-5 via X1)", "Anti-Antidiuretic pA2": 6.07}, {"smiles": "N=C(N)NCCC[C@H](NC(=O)[C@@H]1CCCN1C(=O)[C@@H]1CSSC2(CCCCC2)CC(=O)N[C@H](Cc2ccccc2)C(=O)N[C@@H](Cc2ccccc2)C(=O)N[C@@H](CCCCN)C(=O)N[C@@H](CC(N)=O)C(=O)N1)C(=O)NCC(N)=O", "note": "[d(CH2)5 D-Phe^2 Lys^4 AVP, [1-(β-mercapto-β,β-cyclopentamethylenepropionic acid), 2-D-phenylalanine, 4-lysine]-arginine vasopressin] ([dF]FKNCPRG-NH2; linker N-5 via X1)", "Anti-Antidiuretic pA2": 7.22}, {"smiles": "CCCC[C@@H]1NC(=O)[C@H](Cc2ccccc2)NC(=O)[C@@H](Cc2ccccc2)NC(=O)CC2(CCCCC2)SSC[C@@H](C(=O)N2CCC[C@H]2C(=O)N[C@@H](CCCNC(=N)N)C(=O)NCC(N)=O)NC(=O)[C@H](CC(N)=O)NC1=O", "note": "[d(CH2)5 D-Phe^2 Nle^4 AVP, [1-(β-mercapto-β,β-cyclopentamethylenepropionic acid), 2-D-phenylalanine, 4-norleucine]-arginine vasopressin] ([dF]F[Nle]NCPRG-NH2; linker N-5 via X1)", "Anti-Antidiuretic pA2": 7.12}, {"smiles": "CCC[C@@H]1NC(=O)[C@H](Cc2ccccc2)NC(=O)[C@@H](Cc2ccccc2)NC(=O)CC2(CCCCC2)SSC[C@@H](C(=O)N2CCC[C@H]2C(=O)N[C@@H](CCCNC(=N)N)C(=O)NCC(N)=O)NC(=O)[C@H](CC(N)=O)NC1=O", "note": "[d(CH2)5 D-Phe^2 Nva^4 AVP, [1-(β-mercapto-β,β-cyclopentamethylenepropionic acid), 2-D-phenylalanine, 4-norvaline]-arginine vasopressin] ([dF]F[Nva]NCPRG-NH2; linker N-5 via X1)", "Anti-Antidiuretic pA2": 6.99}]}]}
